Data: article PMC8429728, “TNK1 is a ubiquitin-binding and 14-3-3-regulated kinase that can be targeted to block tumor growth” (Nature Communications, 2021)
Read-outs that look alike come from different tables or passages of the source.

How the values were obtained:
Assay in all cases: biochemical
Parameters in all cases: Reaction Biology 371-kinase panel at Km ATP, per cent enzyme activity relative to DMSO, single dose in duplicate
ALK6/BMPR1B = ALK6/BMPR1B (Homo sapiens, UniProt O00238); settings: duplicate measurements, Km ATP
Sequence of ALK6/BMPR1B (O00238 whole entry): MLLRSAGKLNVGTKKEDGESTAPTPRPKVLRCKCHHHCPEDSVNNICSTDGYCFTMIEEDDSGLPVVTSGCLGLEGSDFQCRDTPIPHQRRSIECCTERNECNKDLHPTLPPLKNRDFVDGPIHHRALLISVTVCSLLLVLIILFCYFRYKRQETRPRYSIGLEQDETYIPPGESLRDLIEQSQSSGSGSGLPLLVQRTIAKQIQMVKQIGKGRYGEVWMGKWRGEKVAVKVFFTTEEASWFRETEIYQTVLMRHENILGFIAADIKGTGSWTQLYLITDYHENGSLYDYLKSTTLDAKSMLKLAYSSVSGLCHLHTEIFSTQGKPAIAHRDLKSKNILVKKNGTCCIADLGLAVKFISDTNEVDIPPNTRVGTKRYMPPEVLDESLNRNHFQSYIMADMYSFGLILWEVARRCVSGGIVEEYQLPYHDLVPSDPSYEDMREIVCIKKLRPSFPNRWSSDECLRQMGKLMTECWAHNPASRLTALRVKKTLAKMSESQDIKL
Method in brief: (§1)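 Percent kinase activity relative to vehicle (DMSO) is reported for a 371-kinase in vitro panel at 300 nM compound; IC50 values derive from variable-slope sigmoidal fits with the lower plateau fixed at 0.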

AXL = AXL (Homo sapiens, UniProt P30530); settings: duplicate measurements, Km ATP
Sequence of AXL (P30530 whole entry): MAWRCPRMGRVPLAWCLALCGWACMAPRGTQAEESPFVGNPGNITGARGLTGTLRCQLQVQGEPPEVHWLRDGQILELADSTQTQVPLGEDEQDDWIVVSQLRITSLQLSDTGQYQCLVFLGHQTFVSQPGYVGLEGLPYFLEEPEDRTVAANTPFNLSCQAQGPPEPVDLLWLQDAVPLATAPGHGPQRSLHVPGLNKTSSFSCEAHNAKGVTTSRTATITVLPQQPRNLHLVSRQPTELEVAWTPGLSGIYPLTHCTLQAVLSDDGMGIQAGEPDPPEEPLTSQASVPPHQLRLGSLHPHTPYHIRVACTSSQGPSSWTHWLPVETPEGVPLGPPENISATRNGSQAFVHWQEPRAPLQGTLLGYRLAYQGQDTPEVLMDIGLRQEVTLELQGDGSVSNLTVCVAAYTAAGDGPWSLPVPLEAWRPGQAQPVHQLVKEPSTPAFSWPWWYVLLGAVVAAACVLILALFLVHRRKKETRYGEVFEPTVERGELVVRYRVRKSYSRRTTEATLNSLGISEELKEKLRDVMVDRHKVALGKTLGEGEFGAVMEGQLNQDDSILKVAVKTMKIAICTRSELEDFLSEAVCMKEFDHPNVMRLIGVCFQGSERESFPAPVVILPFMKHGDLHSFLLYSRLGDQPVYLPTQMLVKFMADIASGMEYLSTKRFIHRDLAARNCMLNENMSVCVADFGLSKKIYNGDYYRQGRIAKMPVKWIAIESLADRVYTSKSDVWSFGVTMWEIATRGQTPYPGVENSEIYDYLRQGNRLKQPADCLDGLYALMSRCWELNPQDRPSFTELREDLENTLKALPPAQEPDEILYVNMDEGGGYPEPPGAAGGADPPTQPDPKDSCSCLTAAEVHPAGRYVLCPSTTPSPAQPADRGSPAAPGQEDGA
Method in brief: as §1

BRSK2 = BRSK2 (Homo sapiens, UniProt Q8IWQ3); settings: duplicate measurements, Km ATP
Method in brief: as §1

CAMK2b = CAMK2b (Homo sapiens, UniProt Q13554); settings: duplicate measurements, Km ATP
Method in brief: as §1

CDK18/cyclin Y (PCTK3) = CDK18/cyclin Y (PCTK3) (Homo sapiens, UniProt Q07002); settings: duplicate measurements, Km ATP
Method in brief: as §1

CDK2/cyclin A1 = CDK2/cyclin A1 (Homo sapiens, UniProt P24941); settings: duplicate measurements, Km ATP
Method in brief: as §1

CDK9/CYCLIN K = CDK9/CYCLIN K (Homo sapiens, UniProt P50750); settings: duplicate measurements, Km ATP
Sequence of CDK9/CYCLIN K (P50750 whole entry): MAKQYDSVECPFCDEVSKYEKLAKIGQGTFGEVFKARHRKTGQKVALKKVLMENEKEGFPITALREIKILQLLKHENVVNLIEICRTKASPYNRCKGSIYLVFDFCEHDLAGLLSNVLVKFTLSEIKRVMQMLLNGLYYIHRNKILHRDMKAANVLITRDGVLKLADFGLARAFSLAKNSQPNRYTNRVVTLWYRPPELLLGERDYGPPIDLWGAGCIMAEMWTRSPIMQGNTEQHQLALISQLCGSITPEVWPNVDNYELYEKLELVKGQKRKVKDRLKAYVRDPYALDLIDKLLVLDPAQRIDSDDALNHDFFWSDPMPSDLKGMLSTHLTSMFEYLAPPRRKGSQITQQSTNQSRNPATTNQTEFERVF
Sequence of CDK9/CYCLIN K (O75909 whole entry partner): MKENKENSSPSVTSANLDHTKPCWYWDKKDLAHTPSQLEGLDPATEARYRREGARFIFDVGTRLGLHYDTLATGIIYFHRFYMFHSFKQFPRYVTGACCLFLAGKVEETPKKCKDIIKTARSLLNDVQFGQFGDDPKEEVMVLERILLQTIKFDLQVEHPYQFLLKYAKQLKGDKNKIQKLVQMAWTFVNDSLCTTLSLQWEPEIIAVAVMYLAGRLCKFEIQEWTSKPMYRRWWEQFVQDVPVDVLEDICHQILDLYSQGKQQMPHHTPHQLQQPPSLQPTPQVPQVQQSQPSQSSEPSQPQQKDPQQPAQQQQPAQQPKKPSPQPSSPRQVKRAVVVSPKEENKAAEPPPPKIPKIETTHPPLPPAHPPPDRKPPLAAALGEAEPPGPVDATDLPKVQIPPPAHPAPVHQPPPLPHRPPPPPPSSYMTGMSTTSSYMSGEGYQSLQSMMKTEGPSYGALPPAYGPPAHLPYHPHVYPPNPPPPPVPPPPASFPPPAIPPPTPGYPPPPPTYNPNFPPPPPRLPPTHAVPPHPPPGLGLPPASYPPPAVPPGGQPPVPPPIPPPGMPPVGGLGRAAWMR
Method in brief: as §1

DAPK2 = DAPK2 (Homo sapiens, UniProt Q9UIK4); settings: duplicate measurements, Km ATP
Sequence of DAPK2 (Q9UIK4 whole entry): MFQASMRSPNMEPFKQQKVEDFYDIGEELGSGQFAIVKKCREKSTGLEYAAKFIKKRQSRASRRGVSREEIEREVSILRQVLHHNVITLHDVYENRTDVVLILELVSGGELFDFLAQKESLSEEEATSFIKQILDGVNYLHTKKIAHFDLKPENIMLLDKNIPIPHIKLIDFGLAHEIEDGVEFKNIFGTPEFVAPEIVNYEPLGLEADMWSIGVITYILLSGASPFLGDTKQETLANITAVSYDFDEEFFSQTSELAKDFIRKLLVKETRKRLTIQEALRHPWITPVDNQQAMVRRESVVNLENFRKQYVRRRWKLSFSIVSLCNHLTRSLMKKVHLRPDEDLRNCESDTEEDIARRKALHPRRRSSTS
Method in brief: as §1

FLT3 = FLT3 (Homo sapiens, UniProt P36888); settings: duplicate measurements, Km ATP
Sequence of FLT3 (P36888 whole entry): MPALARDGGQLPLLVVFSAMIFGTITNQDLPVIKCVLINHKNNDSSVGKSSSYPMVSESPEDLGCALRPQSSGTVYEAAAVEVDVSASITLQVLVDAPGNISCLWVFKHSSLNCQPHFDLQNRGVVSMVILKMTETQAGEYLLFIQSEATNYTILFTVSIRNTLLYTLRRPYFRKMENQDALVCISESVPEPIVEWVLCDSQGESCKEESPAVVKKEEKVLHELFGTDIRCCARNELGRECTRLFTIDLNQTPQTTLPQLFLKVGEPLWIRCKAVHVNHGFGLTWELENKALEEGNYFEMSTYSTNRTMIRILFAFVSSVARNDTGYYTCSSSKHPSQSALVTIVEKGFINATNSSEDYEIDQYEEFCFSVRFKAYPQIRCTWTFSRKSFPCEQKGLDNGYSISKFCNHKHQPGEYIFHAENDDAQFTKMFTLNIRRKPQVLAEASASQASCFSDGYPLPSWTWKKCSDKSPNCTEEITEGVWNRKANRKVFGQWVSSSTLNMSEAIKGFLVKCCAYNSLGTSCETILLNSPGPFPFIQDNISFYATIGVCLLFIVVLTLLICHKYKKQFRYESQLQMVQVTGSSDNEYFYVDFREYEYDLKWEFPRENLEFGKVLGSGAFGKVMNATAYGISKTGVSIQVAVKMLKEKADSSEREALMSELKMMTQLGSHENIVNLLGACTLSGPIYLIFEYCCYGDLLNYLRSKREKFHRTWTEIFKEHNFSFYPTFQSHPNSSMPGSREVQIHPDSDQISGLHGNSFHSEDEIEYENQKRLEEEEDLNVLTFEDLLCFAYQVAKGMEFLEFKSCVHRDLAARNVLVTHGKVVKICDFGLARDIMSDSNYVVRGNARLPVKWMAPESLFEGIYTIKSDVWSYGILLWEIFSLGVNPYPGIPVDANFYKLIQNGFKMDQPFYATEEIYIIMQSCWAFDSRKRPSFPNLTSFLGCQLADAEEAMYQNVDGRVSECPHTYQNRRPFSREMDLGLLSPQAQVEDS
Method in brief: as §1

KDR/VEGFR2 = KDR/VEGFR2 (Homo sapiens, UniProt P35968); settings: duplicate measurements, Km ATP
Method in brief: as §1

MKK7 = molecular target: T1, MKK7 (Homo sapiens, UniProt O14733); settings: duplicate measurements, Km ATP
T1 construct: gene MAP2K7
T1 sequence (O14733 whole entry): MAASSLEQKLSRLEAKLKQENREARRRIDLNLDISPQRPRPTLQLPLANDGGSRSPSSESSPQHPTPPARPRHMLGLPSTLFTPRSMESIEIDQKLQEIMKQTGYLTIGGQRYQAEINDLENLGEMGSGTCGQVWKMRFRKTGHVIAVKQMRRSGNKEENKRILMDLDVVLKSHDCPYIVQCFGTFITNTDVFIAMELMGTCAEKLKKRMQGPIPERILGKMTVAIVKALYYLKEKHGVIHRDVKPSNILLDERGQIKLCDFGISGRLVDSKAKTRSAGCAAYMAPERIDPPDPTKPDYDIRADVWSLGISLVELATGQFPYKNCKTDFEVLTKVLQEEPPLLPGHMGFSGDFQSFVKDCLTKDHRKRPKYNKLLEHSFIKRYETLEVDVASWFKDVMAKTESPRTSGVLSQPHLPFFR
Method in brief: as §1

MNK1 = molecular target: T2, MNK1 (Homo sapiens, UniProt Q9BUB5); settings: duplicate measurements, Km ATP
T2 construct: gene MKNK1
T2 sequence (Q9BUB5 whole entry): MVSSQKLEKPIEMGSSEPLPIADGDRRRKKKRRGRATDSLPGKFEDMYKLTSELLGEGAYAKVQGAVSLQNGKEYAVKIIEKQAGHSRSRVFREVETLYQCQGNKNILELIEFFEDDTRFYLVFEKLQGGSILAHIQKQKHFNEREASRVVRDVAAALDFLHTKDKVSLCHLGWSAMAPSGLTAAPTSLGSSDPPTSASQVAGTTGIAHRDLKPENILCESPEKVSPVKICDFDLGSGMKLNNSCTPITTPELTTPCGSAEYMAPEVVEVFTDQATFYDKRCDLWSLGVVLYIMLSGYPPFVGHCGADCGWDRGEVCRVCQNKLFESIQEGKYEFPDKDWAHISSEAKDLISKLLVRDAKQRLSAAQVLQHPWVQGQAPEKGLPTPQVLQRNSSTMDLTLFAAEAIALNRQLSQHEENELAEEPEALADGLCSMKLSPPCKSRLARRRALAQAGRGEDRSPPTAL
Method in brief: as §1

PASK = PASK (Homo sapiens, UniProt Q96RG2); settings: duplicate measurements, Km ATP; read-out: % Enzyme Activity (relative to DMSO controls) / TP-0005801 (0.3µM) / Data 1
Method in brief: as §1

PLK1 = PLK1 (Homo sapiens, UniProt P53350); settings: duplicate measurements, Km ATP
Method in brief: as §1

RSK3 = molecular target: T3, RSK3 (Homo sapiens, UniProt Q15349); settings: duplicate measurements, Km ATP
T3 construct: gene RPS6KA2
Method in brief: as §1

SGK2 = SGK2 (Homo sapiens, UniProt Q9HBY8); settings: duplicate measurements, Km ATP
Sequence of SGK2 (Q9HBY8 whole entry): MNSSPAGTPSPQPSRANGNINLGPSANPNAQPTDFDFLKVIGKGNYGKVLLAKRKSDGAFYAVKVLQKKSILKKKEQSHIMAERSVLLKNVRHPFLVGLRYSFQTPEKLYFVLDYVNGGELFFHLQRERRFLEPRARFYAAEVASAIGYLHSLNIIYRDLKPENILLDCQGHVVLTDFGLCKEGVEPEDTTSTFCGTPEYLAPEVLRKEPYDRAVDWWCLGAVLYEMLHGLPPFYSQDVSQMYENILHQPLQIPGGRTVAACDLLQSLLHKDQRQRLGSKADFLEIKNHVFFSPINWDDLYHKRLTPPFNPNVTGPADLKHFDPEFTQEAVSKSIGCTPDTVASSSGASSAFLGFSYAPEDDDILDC
Method in brief: as §1

SIK1 = SIK1 (Homo sapiens, UniProt P57059); settings: duplicate measurements, Km ATP
Method in brief: as §1

STK21/CIT = STK21/CIT (Homo sapiens, UniProt O14578); settings: duplicate measurements, Km ATP
Method in brief: as §1

SYK = SYK (Homo sapiens, UniProt P43405); settings: duplicate measurements, Km ATP
Method in brief: as §1

TYK1/LTK = TYK1/LTK (Homo sapiens, UniProt P29376); settings: duplicate measurements, Km ATP; read-out: % Enzyme Activity (relative to DMSO controls) / TP-0005801 (0.3µM) / Data 1
Method in brief: as §1

[1] = read-out: % Enzyme Activity (relative to DMSO controls) / TP-0005801 (0.3µM) / Data 1
[2] = read-out: % Enzyme Activity (relative to DMSO controls) / TP-0005801 (0.3µM) / Data 2

How did the remaining activity at 0.3 µM (ALK6/BMPR1B; [1]) turn out when `COc1cc(N2CCN(C)CC2)c(C)cc1Nc1ncc(Br)c(Nc2cccnc2N(C)C)n1` [TP-5801] was run?
The remaining activity at 0.3 µM was 97.9%.

What about the remaining activity at 0.3 µM (ALK6/BMPR1B; [2]) of the same compound?
The remaining activity at 0.3 µM was 97.6%.

And the remaining activity at 0.3 µM (AXL; [1])?
The remaining activity at 0.3 µM was 89.2%.

What about the remaining activity at 0.3 µM (AXL; [2]) of the same compound?
Its remaining activity at 0.3 µM is 86.3%.

What about the remaining activity at 0.3 µM (BRSK2; [1]) of the same compound?
The remaining activity at 0.3 µM was 119%.

And the remaining activity at 0.3 µM (BRSK2; [2])?
Its remaining activity at 0.3 µM is 116%.

What about the remaining activity at 0.3 µM (CAMK2b; [1]) of the same compound?
The remaining activity at 0.3 µM was 64.8%.

And the remaining activity at 0.3 µM (CAMK2b; [2])?
The remaining activity at 0.3 µM was 64%.

What about the remaining activity at 0.3 µM (CDK18/cyclin Y (PCTK3); [1]) of the same compound?
Its remaining activity at 0.3 µM is 98%.

What about the remaining activity at 0.3 µM (CDK18/cyclin Y (PCTK3); [2]) of the same compound?
Its remaining activity at 0.3 µM is 94.2%.

What about the remaining activity at 0.3 µM (CDK2/cyclin A1; [1]) of the same compound?
The remaining activity at 0.3 µM was 67.5%.

What about the remaining activity at 0.3 µM (CDK2/cyclin A1; [2]) of the same compound?
Its remaining activity at 0.3 µM is 63.7%.

And the remaining activity at 0.3 µM (CDK9/CYCLIN K; [1])?
The remaining activity at 0.3 µM was 108%.

What about the remaining activity at 0.3 µM (CDK9/CYCLIN K; [2]) of the same compound?
Its remaining activity at 0.3 µM is 105%.

What about the remaining activity at 0.3 µM (DAPK2; [1]) of the same compound?
The remaining activity at 0.3 µM was 95.1%.

And the remaining activity at 0.3 µM (DAPK2; [2])?
The remaining activity at 0.3 µM was 93.2%.

What about the remaining activity at 0.3 µM (FLT3; [1]) of the same compound?
The remaining activity at 0.3 µM was 3.9%.

What about the remaining activity at 0.3 µM (FLT3; [2]) of the same compound?
The remaining activity at 0.3 µM was 3.79%.

And the remaining activity at 0.3 µM (KDR/VEGFR2; [1])?
Its remaining activity at 0.3 µM is 93.5%.

And the remaining activity at 0.3 µM (KDR/VEGFR2; [2])?
The remaining activity at 0.3 µM was 93.2%.

And the remaining activity at 0.3 µM (MKK7; [1])?
The remaining activity at 0.3 µM was 103%.

And the remaining activity at 0.3 µM (MKK7; [2])?
Its remaining activity at 0.3 µM is 102%.

What about the remaining activity at 0.3 µM (MNK1; [1]) of the same compound?
Its remaining activity at 0.3 µM is 92.5%.

What about the remaining activity at 0.3 µM (MNK1; [2]) of the same compound?
Its remaining activity at 0.3 µM is 90.8%.

And the remaining activity at 0.3 µM (PASK)?
Its remaining activity at 0.3 µM is 102%.

And the remaining activity at 0.3 µM (PLK1; [1])?
The remaining activity at 0.3 µM was 88.7%.

And the remaining activity at 0.3 µM (PLK1; [2])?
The remaining activity at 0.3 µM was 87.8%.

What about the remaining activity at 0.3 µM (RSK3; [1]) of the same compound?
Its remaining activity at 0.3 µM is 80.3%.

What about the remaining activity at 0.3 µM (RSK3; [2]) of the same compound?
The remaining activity at 0.3 µM was 79.2%.

And the remaining activity at 0.3 µM (SGK2; [1])?
Its remaining activity at 0.3 µM is 93.7%.

What about the remaining activity at 0.3 µM (SGK2; [2]) of the same compound?
Its remaining activity at 0.3 µM is 92.7%.

What about the remaining activity at 0.3 µM (SIK1; [1]) of the same compound?
The remaining activity at 0.3 µM was 94.2%.

And the remaining activity at 0.3 µM (SIK1; [2])?
The remaining activity at 0.3 µM was 92.8%.

And the remaining activity at 0.3 µM (STK21/CIT; [1])?
The remaining activity at 0.3 µM was 107%.

What about the remaining activity at 0.3 µM (STK21/CIT; [2]) of the same compound?
Its remaining activity at 0.3 µM is 105%.

What about the remaining activity at 0.3 µM (SYK; [1]) of the same compound?
The remaining activity at 0.3 µM was 77.6%.

What about the remaining activity at 0.3 µM (SYK; [2]) of the same compound?
Its remaining activity at 0.3 µM is 77.5%.

And the remaining activity at 0.3 µM (TYK1/LTK)?
Its remaining activity at 0.3 µM is 16.4%.
